Here are results for four compounds from patent US20230116196A1, “METHOD OF TREATING CNS DISORDERS WITH NEU[…] GABAERGIC COMPOUNDS” (priority 2017, published 2023).

Experiment [1] relates to GABAA receptor β3 subunit S408/9. The experiment is described as follows: Immunoblot of β3 S408/9 phosphorylation in hippocampal slices. The class given is cell-based, mouse. Particulars: 100 nM. Here is the method:
Asterisks represent a significant difference from control (ALLO: p<0.01, Student's t-test, n=10 slices, from 10 mice; SGE-516: p<0.05, Student's t-test, n=4 slices, from 4 mice). […] Asterisks represent a significant difference from control (ALLO: p<0.05, Student's t-test, n=8 slices; SGE-516: p<0.05, Student's t-test, n=4 slices).
Hippocampi were dissected out of acute slices from 8 to 12 week old C57/Bl6 mice and lysed with […] including: 20 mM Tris-HCl, 150 mM NaCl, 5 mM EDTA, 10 mM NaF, 2 mM Na3VO4, 10 mM pyrophosphate, 0.1% SDS and 1% Triton after drug treatment. The β3 subunit was isolated using immunoprecipitation with β3 antibodies, after correction for protein content and the specific activity of labeling. Results were attained by SDS/PAGE followed by autoradiography (Abramian et al., 2010). For biotinylation experiments hippocampi were dissected out of acute slices from 8 to 12 week old C57/Bl6 mice and incubated in artificial cerebrospinal fluid (ACSF) described above at 30° C. for 1 h for recovery before experimentation. Slices were then placed on ice and incubated for 30 min with 1 mg/mL NHS-SS-biotin (Pierce). Excess biotin was removed by a 50 mM glycine quenching buffer, followed by washing of slices three times in ice-cold ACSF. The tissue was snap frozen on dry ice for 5 min, thawed at 4° C. and lysed. The lysates were solubilized with 2% Triton at 4° C. on a rotating wheel for 1 h. The insoluble material was removed by centrifugation, and 350-500 μg of protein lysate were incubated with NeutrAvidin beads (Pierce) for 18-24 h at 4° C. Bound material was eluted with sample buffer and subjected to SDS/PAGE and then immunoblotted with the indicated antibodies. Blots were then quantified using the CCD-based ChemiDoc XRS ? system. Antibodies against the β3 subunit and the phospho-β3 antibody were generated and verified by the laboratory of S.J.M. (Vien et al., 2015).
Treatment of hippocampal slices with SGE-516 increased the phosphorylation of S408/9 measured using pS408/9 antibodies. To produce antibodies specific for phosphorylated S443, rabbits were injected with a synthetic peptide corresponding to residues […] of the murine α4 subunit in which the serine residue corresponding to S443 was chemically phosphorylated; […]. Hippocampal slices were treated with vehicle (Con), or SGE-516 for 20 min. Slices were immunoblotted with pS408/9, β3, or actin antibodies. The ratio of pS408/9/β3 immunoreactivity was then normalized to control slices (100%=the line).
Hippocampal slices were treated with 100 nM ALLO or P4 (progesterone), and S408/9 phosphorylation was then determined as detailed above, n=4 slices (FIG. 18D). Hippocampal slices were treated with 100 nM ORG (FIG. 18E). S408/9 phosphorylation was examined using immunoblotting. […]
Background: Immunoblotting shows a protein as a band on a membrane.

For experiment [2], the system named is dentate gyrus granule cells (DGGCs). It is filed as cell-based, mouse. Particulars: protocol as FIG. 3. Here is the method:
Brain slices were prepared from 3- to 5-week-old male C57 mice. Mice were anesthetized with isoflurane, decapitated, and brains were rapidly removed and submerged in ice-cold cutting solution containing (mM): 126 NaCl, 2.5 KCl, 0.5 CaCl2, 2 MgCl2, 26 NaHCO3, 1.25 NaH2PO4, 10 glucose, 1.5 sodium pyruvate, and 3 kynurenic acid. Coronal 310 μm thick slices were cut with the vibratome VT1000S (Leica Microsystems, St Louis, Mo., USA). The slices were then transferred into incubation chamber filled with prewarmed (31-32° C.) oxygenated artificial cerebro-spinal fluid (ACSF) of the following composition (in mM): 126 NaCl, 2.5 KCl, 2 CaCl2, 2 MgCl2, 26 NaHCO3, 1.25 NaH2PO4, 10 glucose, 1.5 sodium pyruvate, 1 glutamine, 3 kynurenic acid and 0.005 GABA bubbled with 95% O2-5% CO2. Slices were allowed to recover at 32° C. for at least 1 hr before recording. Exogenous GABA was added in an attempt to standardize ambient GABA in the slice and provide an agonist source for newly inserted extrasynaptic GABAARs.
After recovery, a single slice was transferred to a submerged, dual perfusion recording chamber (Warner Instruments, Hamden, Conn., USA) on the stage of an upright microscope (Nikon FN-1) with a 40× water immersion objective equipped with DIC/IR optics. Slices were maintained at 32° C. and gravity-superfused with ACSF solution throughout experimentation and perfused at rate of 2 ml/min with oxygenated (O2/CO2 95/5%) ACSF.
Whole-cell currents were recorded from the dentate gyrus granule cells (DGGCs) in 310-μm-thick coronal hippocampal slices. Patch pipettes (5-7MΩ) were pulled from borosilicate glass (World Precision Instruments) and filled with intracellular solution of the composition (in mM) as follows: 140 CsCl, 1 MgCl2, 0.1 EGTA, 10 HEPES, 2 Mg-ATP, 4 NaCl and 0.3 Na-GTP (pH=7.2 with CsOH). A 5 min period for stabilization after obtaining the whole-cell recording conformation (holding potential of −60 mV) was allowed before currents were recorded using an Axopatch 200B amplifier (Molecular Devices), low-pass filtered at 2 kHz, digitized at 20 kHz (Digidata 1440A; Molecular Devices), and stored for offline analysis.
For tonic current measurements, an all-points histogram was plotted for a 10 s period before and during 100 μM picrotoxin application, once the response reached a plateau level. Recordings with unstable baselines were discarded. Fitting the histogram with a Gaussian distribution gave the mean baseline current amplitude and the difference between the amplitudes before and during picrotoxin was considered to be the tonic current. The negative section of the all-points histogram which corresponds to the inward IPSCs was not fitted with a Gaussian distribution (Kretschmannova et al., 2013; Nusser and Mody, 2002). Series resistance and whole-cell capacitance were continually monitored and compensated throughout the course of the experiment. Recordings were eliminated from data analysis if series resistance increased by >20%. Spontaneous inhibitory post-synaptic currents (sIPSCs) were analyzed using the mini-analysis software (version 5.6.4; Synaptosoft, Decatur, Ga.). Minimum threshold detection was set to 3 times the value of baseline noise signal. To assess sIPSC kinetics, the recording trace was visually inspected and only events with a stable baseline, sharp rising phase, and single peak were used to negate artifacts due to event summation. Only recordings with a minimum of 200 events fitting these criteria were analyzed. sIPSCs amplitude, and frequency from each experimental condition was pooled and expressed as mean±SEM. To measure sIPSC decay, 100 consecutive events were averaged and the decay was fitted to a double exponential and the weighted decay constant (tw) was determined. Statistical analysis was performed by using Student t-test (paired and unpaired where appropriate), where p<0.05 is considered significant.

The test system of experiment [3] is GT1-7 cells. The experiment is described as follows: Patch-clamp of GABA-induced currents (IGABA) in GT1-7 cells. It is filed as cell-based. To be noted: 100 nM in electrolyte, GABA EC20, 20 min time course. Here is the method: Patch-clamp recordings were made from GT1-7 cells. The magnitude of the GABA-induced currents (IGABA) at EC20 agonists concentration were then measured, in the presence of control electrolyte or that supplemented with 100 nM ALLO, or 100 nM ORG OD 02-0 over a time course of 20 min.
On the technique in general: In patch-clamp work, channel activity is measured electrically.

Experiment [4] has as its system GABAARs composed of α4β3 subunits. The experiment is described as follows: Acute modulation of IGABA in HEK-293 expressing GABAARs. The class given is cell-based. To be noted: 100 mM (so in the source), rapidly applied with GABA.
Experiment [5] has as its system GT1-7 cells. The experiment is described as follows: Immunoblot of β3 S408/9 phosphorylation in GT1-7 cells. The class given is cell-based. Particulars: 100 nM, 15 min. As for the experimental part: GT1-7 cells that co-express mPRα and GABAARs were used to measure the level of phosphorylation at S408/9 position of β3 subunit. […] Expression of mPRα was confirmed using western blotting.
GT1-7 cells were treated with 100 nM AllO or P4 for 15 min and immunoblotted with antibodies specifically recognizing β3, actin, and […] β3 subunit (pS408/9). The ratio of pS408/9 β3 subunit immunoreactivity were then normalized to levels seen in vehicle treated to controls, n=6.

Experiment [6] relates to dentate gyrus granule cells (DGGCs). To be noted: Abramian et al., 2010, 2014; cited from earlier work.
The target in a further experiment is T1, α4β3δ GABAA receptors (Homo sapiens, UniProt O14764+P28472+P48169).
T1 construct: expressed in transfected cells; host or cells: CHO cells, transiently transfected (Lipofectamine)
T1 sequence (P48169 36-554): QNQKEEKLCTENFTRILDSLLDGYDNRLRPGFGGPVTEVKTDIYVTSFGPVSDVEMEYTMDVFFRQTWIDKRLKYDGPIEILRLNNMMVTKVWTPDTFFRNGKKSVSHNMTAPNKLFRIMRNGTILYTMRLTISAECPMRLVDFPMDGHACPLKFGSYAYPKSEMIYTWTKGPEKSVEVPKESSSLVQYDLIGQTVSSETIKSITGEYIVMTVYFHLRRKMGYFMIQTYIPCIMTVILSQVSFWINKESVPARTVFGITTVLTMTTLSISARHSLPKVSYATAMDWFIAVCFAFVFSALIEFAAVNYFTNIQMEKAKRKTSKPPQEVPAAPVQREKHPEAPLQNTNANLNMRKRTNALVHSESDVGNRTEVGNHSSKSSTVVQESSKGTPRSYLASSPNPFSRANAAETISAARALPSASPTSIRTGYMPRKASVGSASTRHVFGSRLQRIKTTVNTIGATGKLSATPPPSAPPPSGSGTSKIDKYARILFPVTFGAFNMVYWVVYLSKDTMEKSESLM
T1 sequence (P28472 26-473): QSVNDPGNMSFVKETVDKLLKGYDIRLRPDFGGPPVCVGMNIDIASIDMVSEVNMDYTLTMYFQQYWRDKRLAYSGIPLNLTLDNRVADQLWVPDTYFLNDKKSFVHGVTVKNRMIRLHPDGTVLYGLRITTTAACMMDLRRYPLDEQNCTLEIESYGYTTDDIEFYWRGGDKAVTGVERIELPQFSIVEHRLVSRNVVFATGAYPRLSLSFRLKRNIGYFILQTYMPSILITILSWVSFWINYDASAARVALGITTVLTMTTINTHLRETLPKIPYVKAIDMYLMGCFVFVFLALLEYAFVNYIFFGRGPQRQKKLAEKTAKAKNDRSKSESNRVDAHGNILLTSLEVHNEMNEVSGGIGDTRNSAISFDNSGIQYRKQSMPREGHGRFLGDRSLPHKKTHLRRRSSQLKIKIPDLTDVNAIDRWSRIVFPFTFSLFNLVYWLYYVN
T1 sequence (O14764 25-452): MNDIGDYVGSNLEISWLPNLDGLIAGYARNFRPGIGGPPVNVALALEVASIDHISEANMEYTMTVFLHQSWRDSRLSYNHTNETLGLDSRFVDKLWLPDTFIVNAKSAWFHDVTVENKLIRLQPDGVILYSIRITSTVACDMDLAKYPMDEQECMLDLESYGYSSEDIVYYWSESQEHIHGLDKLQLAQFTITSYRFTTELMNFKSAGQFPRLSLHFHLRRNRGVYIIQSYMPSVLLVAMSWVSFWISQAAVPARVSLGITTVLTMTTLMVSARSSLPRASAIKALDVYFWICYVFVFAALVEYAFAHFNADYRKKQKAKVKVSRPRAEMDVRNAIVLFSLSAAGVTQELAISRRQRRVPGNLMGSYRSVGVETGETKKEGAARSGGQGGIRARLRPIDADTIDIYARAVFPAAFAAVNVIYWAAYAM
The experiment is described as follows: Whole-cell patch clamp: potentiation of GABA EC20 currents at recombinant α4β3δ GABAA receptors. The class given is cell-based. To be noted: data not shown. Here is the method:
Cellular electrophysiology was used to measure the pharmacological properties of ALLO, ganaxolone and SGE-516 in heterologous cell systems. Compounds were tested for their ability to affect GABA mediated currents at a submaximal agonist dose (GABA EC20=2 μM).
LTK cells were stably transfected with the α1β2γ2 subunits of the GABA receptor and CHO cells are transiently transfected with the α4β3γ subunits via the Lipofecatamine method. Cells were passaged at a confluence of about 50-80% and then seeded onto 35 mm sterile culture dishes containing 2 ml culture complete medium without antibiotics or antimycotics. Cells were cultivated at a density that enabled the recording of single cells without visible connections to other cells.
Whole-cell currents were measured with HEKA EPC-10 amplifiers using PatchMaster software. Bath solution for all experiments contained (in mM): NaCl 137, KCl 4, CaCl2 1.8, MgCl2 1, HEPES 10, D-Glucose 10, pH 7.4 with NaOH. Intracellular (pipette) solution contained (in mM): KCl 130, MgCl2 1, Mg-ATP 5, HEPES 10, EGTA 5, pH 7.2 with KOH. During experiments, cells and solutions were maintained at room temperature (19° C.-30° C.). For manual patchclamp recordings, cell culture dishes were placed on the dish holder of the microscope and continuously perfused (1 ml/min) with bath solution. After formation of a Gigaohm seal between the patch electrode and the cell (pipette resistance range: 2.5 MΩ-6.0MΩ; seal resistance range: >1 GΩ) the cell membrane across the pipette tip was ruptured to assure electrical access to the cell interior (whole-cell patch configuration).
Cells were voltage-clamped at a holding potential of −80 mV. GABAA receptors were activated by 2 μM GABA and compounds were sequentially applied at increasing concentrations for 30 s prior to a 2 s application of GABA. GABA and compounds were applied to cells via the Dynaflow perfusion system (Cellectricon, Sweden). Test compounds were dissolved in DMSO to form 10 mM stock solution and serially diluted to 0.01, 0.1, 1, and 10 μM in bath solution. There was no effect on GABA currents when DMSO was applied to cells at its maximal concentration in solution (0.1%). All concentrations of test compound were tested on each cell. The relative percentage potentiation was defined as the peak amplitude in response to GABA EC20 in the presence of test compound divided by the peak amplitude in response to GABA EC20 alone, multiplied by 100.
ALLO and ganaxolone are known PAMs of both synaptic and extrasynaptic GABAAR-mediated currents. The ability of candidate compound SGE-516 to act as a PAM was compared to ALLO and ganaxolone using the whole-cell recordings of recombinant human GABAA receptors expressed in mammalian cells. The α1β2γ2 or α4β3δ subunit combinations were chosen as representatives of typical synaptic and extrasynaptic GABAA receptors respectively. Similar to previous reports (Botella et al., 2015), ALLO, ganaxolone and SGE-516 allosterically potentiated currents induced by EC20 concentration of GABA in a concentration-dependent manner in both synaptic- and extrasynaptic-type GABAARs.

For `C=C[C@]12CCC(=O)C=C1CCC1C2CC[C@@]2(C)C1CC[C@@H]2C(C)=O` (stereo partly drawn) [ORG OD 02-0], the “S408/9 phosphorylation in hippocampal slices (FIG. 18)” value in experiment [1] is listed as “regulated”. In addition, in experiment [2], the “amplitude and density of GABAergic tonic current, varying doses” value is reported as “dosage-dependent effect”. Also, the “GABA-evoked currents recorded from GT1-7 cells” value in the experiment on GT1-7 cells [3] is “sustained increases”. The “acute modulation of function of GABAARs composed of α4β3 subunits” value in experiment [4] is on record as “did not acutely modulate”.

`CC(=O)[C@H]1CC[C@H]2[C@@H]3CCC4=CC(=O)CC[C@]4(C)[C@H]3CC[C@]12C` [P4, Progesterone]: the “S408/9 phosphorylation in hippocampal slices (FIG. 18)” value in experiment [1] is “regulated”. Besides, in experiment [2], the “amplitude and density of GABAergic tonic current, varying doses” value is “dosage-dependent effect”. The “S408/9 phosphorylation in GT1-7 cells” value in the experiment with GT1-7 cells [5] is “increase”.

Take `C[C@]12CC[C@@H](O)C[C@H]1CC[C@@H]1[C@@H]2CC[C@]2(C)[C@@H](C(=O)CO)CC[C@@H]12` [THDOC, Tetrahydrodeoxycorticosterone]: in experiment [6], the “sustained effect on GABAergic tonic current” value is “long lasting increase”.

For `CN1C(=O)CN=C(c2ccccc2)c2cc(Cl)ccc21` [diazepam], the “effect on GABA evoked currents in α4β3δ receptors” value at α4β3δ GABAA receptors is reported as “did not alter”.
